The subject of the experiment is NL4-3 strain of HIV-1. The experiment can be described thus: HIV-1 replication assay: cyto-protection of MT4 cells infected with NL4-3 virus, CellTiter-Glo viability readout. The experiment is classed as cell-based. As to conditions: Human immunodeficiency virus 1, NL43, 120 h; concentration leading to 50% of cyto-protection; MT4 cells infected with NL4-3 virus; 5 days incubation; CellTiter-Glo; read-out: EC50. On the procedure:
The antiviral activity, particularly against HIV, of compounds according to the invention is evaluated by the protocol described below.
Preparation of Virus stock of the NL4-3 strain of HIV-1 (Adachi et al, J Virol, 1986, 59(2):284-91).
The virus was prepared as described in Lopez et al (Lopez et al, Proc Natl Acad Sci USA., 2006, 103(40):14947-52, by transfecting 2×10^6 293 T cells (CRL-1573, ATCC) with following modifications: 6 μg of NL4-3 proviral DNA molecular clone were mixed with X-tremeGENE 9 DNA transfection reagent from Roche, and used according to manufacturer's instructions. Twenty four hours later, cells were washed and fresh medium added. Forty eight hours after transfection, cell supernatants were harvested, filtered through 0.45-μm-pore-size filters, quantified for HIV-1 p24 antigen by using an Innotest HIV antigen mAb assay (Ingen) according to manufacturer's instructions, and used in infection experiments.
Serial dilutions of compounds to be tested were prepared in complete RPMI medium from 10 mM DMSO stock solutions, and distributed in a volume of 20 μl in 96 well tissue-culture treated plates (Costar 3917), in order to get 0.5% DMSO final concentration in each well, after the addition of infected cells. Control wells contained also 0.5% DMSO final concentration but no compound.
MT4 cells (from the NIH AIDS Research and Reference Reagent Program) in RPMI complete medium were counted (10×10^6 cells per well in Falcon 353047 Multiwell™ 24 well) and infected for 2 hours at 37°, at a multiplicity of infection (moi) of 0.0001-0.00001. Cells were then centrifuged for 3 min at 3000 rpm, and washed two times in 1 ml PBS to remove viruses that have not entered the cells. Infected cells were resuspended in complete RPMI at 1.25×10^6 cells/ml, and 80 μl of infected cells were distributed in each well containing compounds to be tested or control wells. The plates were then incubated at 37° C. for 5 days.
Assay used to measure the inhibition of HIV replication by the compounds (according to Gregg S. Jones et al., Antimicrobial Agents and Chemotherapy, 2009, 53 (3): 1194-1203).
After 5 days of incubation, microplates were equilibrated to room temperature for 30 min and then 50 μl of CellTiter-Glo reagent (Promega Biosciences, Inc., Madison Wis., USA) were added to each well. Cell lysis was carried out at room temperature during 10 min and luminescence was read on a Fluoroskan (Thermo Scientific).
The EC50, or effective concentration 50, is the concentration of compound leading to 50% of cyto-protection in a CellTiter-Glo® viability assay based on MT4 cells infected with NL4-3 virus (table 1).
Regarding `Cc1ccc(C2CC2)c(-c2ccc3c(c2)CCCO3)c1C(CC(C)C)C(=O)O` (stereo not drawn) [Example 46, 2-[3-cyclopropyl-2-(3,4-dihydro-2H-1-benzopyran-6-yl)-6-methylphenyl]-4-methylpentanoic acid], the EC50 was 650 nM. The figure for `Cc1ccc(C2CC2)c(-c2ccc3c(c2)CCCO3)c1C(OC1CC1(F)F)C(=O)O` (stereo not drawn) [Example 47, (2-chroman-6-yl-3-cyclopropyl-6-methyl-phenyl)-(2,2-difluoro-cyclopropoxy)-acetic acid] is 450 nM. The figure for `COc1cc(C)c(C(OC2CC2)C(=O)O)c(-c2ccc3c(c2)CCCO3)c1C1CC1` (stereo not drawn) [Example 56, (2-chroman-6-yl-3-cyclopropyl-4-methoxy-6-methyl-phenyl)-cyclopropoxy-acetic acid] is 500 nM. To `CCc1cc(C2CC2)c(-c2ccc3c(c2)CCCO3)c(C(OC2CC2)C(=O)O)c1C` (stereo not drawn) [Example 57, 2-(2-chroman-6-yl-3-cyclopropyl-5-ethyl-6-methyl-phenyl)-2-(cyclopropoxy)acetic acid] belongs 580 nM. For `Cc1ccc(C)c(C(OC(C)(C)C)C(=O)O)c1-c1ccc2c(c1)CCCO2` (stereo not drawn) [Example 62, 2-(tert-butoxy)-2-[2-(3,4-dihydro-2H-1-benzopyran-6-yl)-3,6-dimethylphenyl]acetic acid, reference compound], the EC50 is 1600 nM. The figure for `CC(C)(C)OC(C(=O)O)c1c(C(F)(F)F)ccc(OCc2ccccc2)c1-c1ccc2c(c1)CCCO2` (stereo not drawn) [Example 63, 2-[3-(benzyloxy)-2-(3,4-dihydro-2H-1-benzopyran-6-yl)-6-(trifluoromethyl)phenyl]-2-(tert-butoxy)acetic acid, reference compound] is 3200 nM.
